The results in this text go back to patent publication US7067491B2, “Heterocyclic compounds having elastase-inhibiting activity and intermediates thereof” (Dainippon Pharmaceutical Co., Ltd., priority 2002, dated 2006).

One may read the IC50 as the concentration needed to halve the response being measured. High values mean weaker potency in that assay, low ones greater potency in that assay.

One assay addresses T1, human neutrophil elastase (Homo sapiens, UniProt P08246).
T1 construct: purchased Elastine Product Co., Inc
T1 sequence (P08246 30-267): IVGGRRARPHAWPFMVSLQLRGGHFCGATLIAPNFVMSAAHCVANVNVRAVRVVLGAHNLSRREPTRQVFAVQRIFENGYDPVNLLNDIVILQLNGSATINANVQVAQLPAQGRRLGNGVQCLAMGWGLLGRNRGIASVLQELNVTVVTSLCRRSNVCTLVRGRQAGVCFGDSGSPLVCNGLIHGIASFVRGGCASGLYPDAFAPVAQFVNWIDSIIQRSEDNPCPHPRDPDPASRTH
Briefly: Inhibitory activity on human neutrophil elastase (HNE) in vitro. In kind it is biochemical. Conditions: human neutrophil elastase 0.2 U/ml, substrate MeO-Suc-Ala-Ala-Pro-Val-pNA 0.5 mM, 37° C., pH 7.5. As for the experimental part: Experiment 1: Inhibitory Activity on Human Neutrophil Elastase (HNE)
The inhibitory activity of the compound of the present invention in vitro on human neutrophil elastase was examined by this experiment.
To 100 mM of HEPES {[N-(2-hydroxyethyl)piperazine-N′-(2-ethanesulfonic acid)], pH 7.5}buffer solution containing 1M NaCl and 0.001% Brij-35 (polyoxyethylene lauryl ether) were added human neutrophil elastase (final concentration: 0.2 U/ml, Elastine Product Co., Inc.) and the compound of the present invention (dissolved in 10% dimethyl sulfoxide; final concentration: 10^−10˜3×10^−3 M). The mixture was pre-incubated for 3 minutes at 37° C. Thereto was added MeO-Suc-Ala-Ala-Pro-Val-pNA (methoxysuccinyl-alanyl-alanyl-prolyl-valyl-p-nitroanilide (Sigma Chemical Co.)) as a substrate to give the final concentration of 0.5 mM, and the reaction was initiated. Under this condition, the producing rate of the reaction product, p-nitroanilide (pNA) at 37° C. was estimated by measuring the absorbance at 404 nm for 3 minutes.
The inhibitory activity of the compound of the present invention against human neutrophil elastase (HNE) is calculated according to the following formula.
The concentration of the compound of the present invention to be required to achieve 50% HNE inhibition (i.e., IC50) was calculated based on the concentration-inhibitory rate curve of the compound of the present invention.
As a comparative compound, N-[(1S)-2-((2S)-2-{N-[(1S)-3,3,3-trifluoro-1-(methylethyl)-2-oxopropyl]carbamoyl}pyrrolidinyl)-1-(methylethyl)-2-oxoethyl](imidazol-4-yl)carboxamide was used, and the same assay was carried out. The planar structure of this compound was the same as one of compound (22) disclosed in J. Med. Chem., 1997, 40, 1876–1885.
`CC(C)[C@H](NC(=O)c1ccc2c(c1)nnn2C(C)C)C(=O)N1CCC[C@H]1C(=O)N[C@H](C(=O)C(F)(F)F)C(C)C` [Example 13, N-[(1S)-2-((2S)-2-{N-[(1S)-3,3,3-trifluoro-1-(methylethyl)-2-oxopropyl]carbamoyl}pyrrolidinyl)-1-(methylethyl)-2-oxoethyl]-[1-(methylethyl)benzotriazol-5-yl]carboxamide] had an IC50 of 6.3 nM.

For the compound `Cc1c(C(=O)N[C@H](C(=O)N2CCC[C@H]2C(=O)N[C@H](C(=O)C(F)(F)F)C(C)C)C(C)C)cnn1-c1ccc(Cl)cc1` [Example 38, N-[(1S)-2-((2S)-2-{N-[(1S)-3,3,3-trifluoro-1-(methylethyl)-2-oxopropyl]carbamoyl}pyrrolidinyl)-1-(methylethyl)-2-oxoethyl]-[1-(4-chlorophenyl)-5-methylpyrazol-4-yl]carboxamide], the IC50 was determined as 8.3 nM. On to `Cc1c(C(=O)N[C@H](C(=O)N2CCC[C@H]2C(=O)N[C@H](C(=O)C(F)(F)F)C(C)C)C(C)C)cnn1-c1ccccc1F` [Example 45], for which the IC50 worked out at 8.4 nM.

Compound `CC(C)[C@H](NC(=O)c1ccc2snnc2c1)C(=O)N1CCC[C@H]1C(=O)N[C@H](C(=O)C(F)(F)F)C(C)C` [Example 14, N-[(1S)-2-((2S)-2-{N-[(1S)-3,3,3-trifluoro-1-(methylethyl)-2-oxopropyl]carbamoyl}pyrrolidinyl)-1-(methylethyl)-2-oxoethyl](benzo[d]1,2,3-thiadiazol-5-yl)carboxamide] yielded an IC50 of 12 nM. Same read-out and setting: under `Cc1ccc2onc(C(=O)N[C@H](C(=O)N3CCC[C@H]3C(=O)N[C@H](C(=O)C(F)(F)F)C(C)C)C(C)C)c2c1` [Example 18, N-[(1S)-2-((2S)-2-{N-[(1S)-3,3,3-trifluoro-1-(methylethyl)-2-oxopropyl]carbamoyl}pyrrolidinyl)-1-(methylethyl)-2-oxoethyl]-(5-methylbenzo[d]isoxazol-3-yl)carboxamide] stands 12 nM; under `Cc1c(C(=O)N[C@H](C(=O)N2CCC[C@H]2C(=O)N[C@H](C(=O)C(F)(F)F)C(C)C)C(C)C)cnn1-c1ccc(F)cc1` [Example 37, N-[(1S)-2-((2S)-2-{N-[(1S)-3,3,3-trifluoro-1-(methylethyl)-2-oxopropyl]carbamoyl}pyrrolidinyl)-1-(methylethyl)-2-oxoethyl]-[1-(4-fluorophenyl)-5-methylpyrazol-4-yl]carboxamide], 9.1 nM; under `CC(C)[C@H](NC(=O)c1cc(-c2ccccc2)no1)C(=O)N1CCC[C@H]1C(=O)N[C@H](C(=O)C(F)(F)F)C(C)C` [Example 24, N-[(1S)-2-((2S)-2-{N-[(1S)-3,3,3-trifluoro-1-(methylethyl)-2-oxopropyl]carbamoyl}pyrrolidinyl)-1-(methylethyl)-2-oxoethyl]-(3-phenylisoxazol-5-yl)carboxamide], 15 nM.

The compound `CC(C)[C@H](NC(=O)c1cnn(-c2ccccc2)c1)C(=O)N1CCC[C@H]1C(=O)N[C@H](C(=O)C(F)(F)F)C(C)C` [Example 33, N-[(1S)-2-((2S)-2-{N-[(1S)-3,3,3-trifluoro-1-(methylethyl)-2-oxopropyl]carbamoyl}pyrrolidinyl)-1-(methylethyl)-2-oxoethyl]-(1-phenylpyrazol-4-yl)carboxamide] registered an IC50 of 12 nM. For `Cc1nsc(C)c1C(=O)N[C@H](C(=O)N1CCC[C@H]1C(=O)N[C@H](C(=O)C(F)(F)F)C(C)C)C(C)C` [Example 5, N-[(1S)-2-((2S)-2-{N-[(1S)-3,3,3-trifluoro-1-(methylethyl)-2-oxopropyl]carbamoyl}pyrrolidinyl)-1-(methylethyl)-2-oxoethyl]-(3,5-dimethylisothiazol-4-yl)carboxamide], the IC50 was 22 nM. On the same count and under the same terms, then `Cc1ccc(-n2ncc(C(=O)N[C@H](C(=O)N3CCC[C@H]3C(=O)N[C@H](C(=O)C(F)(F)F)C(C)C)C(C)C)c2C)cc1` [Example 39, N-[(1S)-2-((2S)-2-{N-[(1S)-3,3,3-trifluoro-1-(methylethyl)-2-oxopropyl]carbamoyl}pyrrolidinyl)-1-(methylethyl)-2-oxoethyl]-[5-methyl-1-(4-methylphenyl)pyrazol-4-yl]carboxamide], with 10 nM; and `Cc1c(C(=O)N[C@H](C(=O)N2CCC[C@H]2C(=O)N[C@H](C(=O)C(F)(F)F)C(C)C)C(C)C)cnn1C(C)(C)C` [Example 32, N-[(1S)-2-((2S)-2-{N-[(1S)-3,3,3-trifluoro-1-(methylethyl)-2-oxopropyl]carbamoyl}pyrrolidinyl)-1-(methylethyl)-2-oxoethyl]-(1-tert-butyl-5-methylpyrazol-4-yl)carboxamide], with 8.5 nM. On the same count and under the same terms, then `CC(C)[C@H](NC(=O)c1cc(-c2ccccc2)on1)C(=O)N1CCC[C@H]1C(=O)N[C@H](C(=O)C(F)(F)F)C(C)C` [Example 9, N-[(1S)-2-((2S)-2-(N-[(1S)-3,3,3-trifluoro-1-(methylethyl)-2-oxopropyl]carbamoyl}pyrrolidinyl)-1-(methylethyl)-2-oxoethyl]-(5-phenylisoxazol-3-yl)carboxamide], with 9.2 nM. Still for that read-out and setting: under `Cc1nocc1C(=O)N[C@H](C(=O)N1CCC[C@H]1C(=O)N[C@H](C(=O)C(F)(F)F)C(C)C)C(C)C` [Example 21, N-[(1S)-2-((2S)-2-{N-[(1S)-3,3,3-trifluoro-1-(methylethyl)-2-oxopropyl]carbamoyl}pyrrolidinyl)-1-(methylethyl)-2-oxoethyl]-(3-methylisoxazol-4-yl)carboxamide] stands 11 nM; under `CC(C)[C@H](NC(=O)c1cc(C(C)(C)C)no1)C(=O)N1CCC[C@H]1C(=O)N[C@H](C(=O)C(F)(F)F)C(C)C` [Example 23, N-[(1S)-2-((2S)-2-{N-[(1S)-3,3,3-trifluoro-1-(methylethyl)-2-oxopropyl]carbamoyl}pyrrolidinyl)-1-(methylethyl)-2-oxoethyl]-(3-tert-butylisoxazol-5-yl)carboxamide], 15 nM. Compound `Cc1nn(-c2ccccc2)c(C)c1C(=O)N[C@H](C(=O)N1CCC[C@H]1C(=O)N[C@H](C(=O)C(F)(F)F)C(C)C)C(C)C` [Example 34, N-[(1S)-2-((2S)-2-{N-[(1S)-3,3,3-trifluoro-1-(methylethyl)-2-oxopropyl]carbamoyl}pyrrolidinyl)-1-(methylethyl)-2-oxoethyl]-(3,5-dimethyl-1-phenylpyrazol-4-yl)carboxamide] displayed an IC50 of 9.8 nM. Consider `Cc1c(C(=O)N[C@H](C(=O)N2CCC[C@H]2C(=O)N[C@H](C(=O)C(F)(F)F)C(C)C)C(C)C)cnn1-c1cccc(F)c1` [Example 46, N-[(1S)-2-((2S)-2-{N-[(1S)-3,3,3-trifluoro-1-(methylethyl)-2-oxopropyl]carbamoyl}pyrrolidinyl)-1-(methylethyl)-2-oxoethyl]-[1-(3-fluorophenyl)-5-methylpyrazol-4-yl]carboxamide], for which inhibition was half-maximal at 8.1 nM (IC50).

The next assay has as its system pulmonary hemorrhage induced by human neutrophil elastase (HNE). Briefly: Inhibitory activity on pulmonary hemorrhage induced by human neutrophil elastase (HNE). In kind it is in vivo. Particulars: hamster, dose 3 mg/kg orally, 30 minutes prior to HNE. The source says: Experiment 3: Inhibitory Activity on Pulmonary Hemorrhage Induced by Human Neutrophil Elastase (HNE)
This experiment tested on in vivo efficacy of the compound of the present invention. When human neutrophil elastase is intratracheally administered to a hamster, the pulmonary hemorrhage is induced. A definite time later after administration of the elastase, in the bronchoalveolar lavage fluid by washing lung via trachea, hemoglobin is detected.
Hamsters (Syrian strain, 7–10 weeks old male) were divided into groups consisting of 3 to 6, and each group was treated as follows:
(A) A Group to which the Compound of the Present Invention was not Administered (Disease Control):
Physiological saline solution (0.2 ml) in which 25 unit of human neutrophil elastase (Elastin Product Co., Inc.) was dissolved was intratracheally administered to a hamster to induce the pulmonary hemorrhage. One hour later after administration of elastase, the hamsters were sacrificed by exsanquination, and alveoli were transtracheally washed twice with physiological saline (2.5 ml), and the hemoglobin concentration in the bronchoalveolar lavage fluid (5 ml) was determined by measuring the absorbance at 414 nm.
(B) A Group to which the Compound of the Present Invention was Administered:
A fixed amount of the compound of the present invention was dissolved in dimethyl sulfoxide (DMSO), and thereto was added 0.5% tragacanth gum to prepare a suspension. The suspension was orally administered to a hamster, 30 minutes prior to the administration of human neutrophil elastase (HNE) (final concentration of DMSO, 1%), and then, human neutrophil elastase was administered in the same manner as the above method (A). After 1 hour, the concentration of hemoglobin in the bronchoalveolar lavage fluid was determined in the same manner as the above method (A).
The hemorrhage inhibition activity of the compound of the present invention is represented as the hemorrhage inhibiting rate in the following formula.
The dose of the compound of the present invention to be required to achieve 50% inhibition of pulmonary hemorrhage (i.e., ED50) was calculated based on the administration dose-hemorrhage inhibiting rate curve.
As a comparative example, the same experiment was also carried out on a comparative compound used in Experiment 1.
Some of the compounds of the present invention were compared with the comparative compound on the hemorrhage inhibitory rate at the dose of 3 mg/kg.
As to `Cc1c(C(=O)N[C@H](C(=O)N2CCC[C@H]2C(=O)N[C@H](C(=O)C(F)(F)F)C(C)C)C(C)C)cnn1-c1ccc(Cl)cc1` [Example 38, N-[(1S)-2-((2S)-2-{N-[(1S)-3,3,3-trifluoro-1-(methylethyl)-2-oxopropyl]carbamoyl}pyrrolidinyl)-1-(methylethyl)-2-oxoethyl]-[1-(4-chlorophenyl)-5-methylpyrazol-4-yl]carboxamide], the “Pulmonary hemorrhage inhibitory rate (%)” value was found to be 63%. Same read-out and setting: then `Cc1c(C(=O)N[C@H](C(=O)N2CCC[C@H]2C(=O)N[C@H](C(=O)C(F)(F)F)C(C)C)C(C)C)cnn1-c1ccccc1F` [Example 45], with 58%.
